The subject of one assay is STAT1. Briefly: IFN-γ induced STAT1 phosphorylation, western blot in U937 cells. Format: cell-based. The note with it: PLAG 0.01 to 10 μg/ml, 10 ng IFN-γ, 15 min. On the procedure:
Dephosphorylation of STAT6 is examined using anti-phosphorylated STAT6 in U937, A549, and Jurkat cell lysates treated with PLAG concentration from 0.01 to 10 μg/ml. Phosphorylation of STAT6 is induced by treatment with 10 ng/ml of IL-4. Dephosphorylation of STAT1 is examined in the U937 cell lysate treated with PLAG (0.01 to 10 μg/ml). Phosphorylation of STAT1 is induced by 10 ng of IFN-γ treatment. Dephosphorylation of STAT1 and STAT6 is examined at 15 min after stimulation with IFN-γ and IL-4 respectively, in the PLAG pretreated cells. […] The transcriptional activity of STAT6 is decreased by the dephosphorylation of STAT6. […] No effect of PLAG on STAT1 phosphorylation is observed.

The subject of another assay is monocytes. Put plainly: Monocyte ratio in blood of LPS-treated C57BL/6 mice. Format: in vivo. Particulars: C57BL/6 mouse, LPS + PLAG, ratio to total leukocytes. On the procedure: To observe the ratio of neutrophil and lymphocyte in the blood of Balb/C mice, 1 mg/kg of lipopolysaccharide (LPS) is injected to mice, i.p. to induce inflammation. 5 mg/kg of PLAG is administered to the mice orally and blood samples are taken at 3 and 13 days after. In addition, for comparison, normal mice that are not treated with PLAG, receive PBS (phosphate buffered saline) and olive oil. The blood samples taken from the mice are treated with EDTA bottle 0.5 ml (Minocollect tube, Greiner bio-one, Austria) and the level of neutrophils (NEU) and lymphocytes (LYM) as a percentage of total leukocytes is measured using automated blood sample analyzer BC-6800 (Mindray, Shenzhen, China).
Except for using C57BL/6 mouse instead of Balb/C mouse, mice are treated in the same manner as Example 6, the monocyte ratio (Mono) to total leukocytes is measured and the results are shown in Table 5.

Take `CCCCC/C=C\C/C=C\CCCCCCCC(=O)OC(COC(C)=O)COC(=O)CCCCCCCCCCCCCCC` (racemic) [PLAG, 1-palmitoyl-2-linoleoyl-3-acetylglycerol]: the STAT1 phosphorylation entry in the assay on STAT1 is “No effect”. For the same compound, the Monocyte ratio in the assay on monocytes is 18.4 ± 6.6%.
